Results on 25 compounds are retold here after patent US20040072839A1, “1-Phenylalkylpiperazines” (priority 2002, published 2004).

In one assay the target is T1, human 5-HT1A-serotonergic receptor (Homo sapiens, UniProt P08908).
T1 construct: expressed in transfected cells; host or cells: HeLa (human), stably transfected; membrane preparation
T1 sequence (P08908 1-422): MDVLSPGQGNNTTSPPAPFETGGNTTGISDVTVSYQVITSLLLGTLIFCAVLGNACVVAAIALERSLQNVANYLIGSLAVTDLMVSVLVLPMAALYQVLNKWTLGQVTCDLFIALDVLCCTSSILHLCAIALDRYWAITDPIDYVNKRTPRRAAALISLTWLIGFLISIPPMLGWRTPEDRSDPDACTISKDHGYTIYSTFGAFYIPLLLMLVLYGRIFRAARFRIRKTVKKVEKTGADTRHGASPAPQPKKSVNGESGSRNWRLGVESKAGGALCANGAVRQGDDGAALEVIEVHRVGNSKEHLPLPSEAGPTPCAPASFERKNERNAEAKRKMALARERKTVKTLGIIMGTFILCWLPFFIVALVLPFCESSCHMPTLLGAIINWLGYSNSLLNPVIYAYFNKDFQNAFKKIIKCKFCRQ
The assay can be described thus: Radioligand binding to recombinant 5-HT1A receptors ([3H]8-OH-DPAT, HeLa cell membranes). The note with it: 1 nM [3H]8-OH-DPAT; Ki from IC50 by Cheng & Prusoff; read-out: Ki, binding affinity for 5-HT1A receptors. Here is the method:
Genomic clone coding for the human 5-HT1A-serotonergic receptor was stably transfected in a human cell line (HeLa). HeLa cells were grown as monolayers in Dulbecco's modified Eagle medium (DMEM), containing 10% foetal bovine serum, gentamycin (0.1 mg/ml) and 5% carbon dioxide, at 37° C. The cells were detached from the growth flask at 95% confluence by a cell scraper and were lysed in cold 5 mM Tris and 5 mM EDTA buffer (pH 7.4). The homogenates were centrifuged at 40000×g×20 minutes and the pellets were resuspended in a small volume of cold 5 mM Tris and 5 mM EDTA buffer (pH 7.4) and immediately frozen and stored at −70° C. until use. On the day of experiment, the cell membranes were resuspended in incubation buffer: 50 mM Tris HCl (pH 7.4), 2.5 mM MgCl2, […] (Fargin et al., Nature 335, 358-360, 1988). The membranes were incubated in a final volume of 1 ml for 30 minutes at 30° C. with 1 nM [^3H]8-OH-DPAT, in the absence or presence of the test compounds. Non-specific binding was determined in the presence of 10 μM 5-HT. Incubation was stopped by addition of cold Tris-HC1 buffer and rapid filtration through a 0.2%-polyethyleneimine-pretreated Whatman-GF/B or Schleicher-&-Schuell-GF52 filter.
The affinities of the tested compounds were evaluated as inhibition of specific binding of the radioligand to 5-HT1A receptors (IC50) by using the non-linear curve-fitting program Allfit (De Lean et al., Am. J. Physiol. 235, E97-E102 (1978). The IC50 value was converted to an affinity constant (Ki) by the equation of Cheng & Prusoff (Cheng Y. C., Prusoff W. H., Biochem. Pharmacol. 22, 3099-3108 (1973)).
Turning to `CCNC(=O)O[C@@H](C1CCCCC1)[C@H](CCN1CCN(c2ccccc2OC)CC1)c1ccccc1F` (racemic) [Example 47, (RS,SR) 1-[4-Cyclohexyl-4-ethylaminocarbonyloxy-3-(2-fluorophenyl)butyl]-4-(2-methoxyphenyl)piperazine], the Ki – broadly, a measure of affinity in units of concentration, obtained from inhibition or displacement – worked out at 0.85 nM.

With `COC(C1CCCCC1)C(CCN1CCN(c2cccc3c2OCCO3)CC1)c1ccccc1` (stereo not drawn) [Example 17, 1-(4-cyclohexyl-4-methoxy-3-phenylbutyl)-4-[5-(2,3-dihydro-1,4-benzodioxinyl)]piperazine], the Ki was determined as 0.64 nM.

With `COc1cc(F)ccc1N1CCN(CCC(c2ccccc2)C(OC)C2CCCCC2)CC1` (stereo not drawn) [Example 18, 1-(4-Cyclohexyl-4-methoxy-3-phenylbutyl)-4-(4-fluoro-2-methoxyphenyl)piperazine], the Ki was found to be 0.81 nM.

With `CCOC(C1CCCCC1)C(CCN1CCN(c2cccc3c2OCCO3)CC1)c1ccccc1` (stereo not drawn) [Example 19, 1-(4-Cyclohexyl-4-ethoxy-3-phenylbutyl)-4-[5-(2,3-dihydro-1,4-benzodioxinyl)]piperazine], the Ki was found to be 0.69 nM.

Regarding `CCOC(C1CCCCC1)C(CCN1CCN(c2ccc(F)cc2OC)CC1)c1ccccc1` (stereo not drawn) [Example 20, 1-(4-Cyclohexyl-4-ethoxy-3-phenylbutyl)-4-(4-fluoro-2-methoxyphenyl)piperazine], the Ki is 3.19 nM.

`C=CCOC(C1CCCCC1)C(CCN1CCN(c2cccc3c2OCCO3)CC1)c1ccccc1` (stereo not drawn) [Example 21, 1-(4-Allyloxy-4-cyclohexyl-3-phenylbutyl)-4-[5-(2,3-dihydro-1,4-benzodioxinyl)]piperazine]: the Ki turned out to be 0.77 nM.

In the case of `C=CCOC(C1CCCCC1)C(CCN1CCN(c2ccc(F)cc2OC)CC1)c1ccccc1` (stereo not drawn) [Example 22, 1-(4-Allyloxy-4-cyclohexyl-3-phenylbutyl)-4-(4-fluoro-2-methoxyphenyl)piperazine], the Ki turned out to be 2.03 nM.

Take `C#CCOC(C1CCCCC1)C(CCN1CCN(c2cccc3c2OCCO3)CC1)c1ccccc1` (stereo not drawn) [Example 23, 1-(4-Cyclohexyl-3-phenyl-4-propargyloxybutyl)-4-[5-(2,3-dihydro-1,4-benzodioxinyl)]piperazine]: the inhibition constant (Ki) came out at 0.63 nM.

In the case of `C#CCOC(C1CCCCC1)C(CCN1CCN(c2ccc(F)cc2OC)CC1)c1ccccc1` (stereo not drawn) [Example 24, 1-(4-Cyclohexyl-3-phenyl-4-propargyloxybutyl)-4-(4-fluoro-2-methoxyphenyl)piperazine], the Ki stood at 0.64 nM.

For the compound `CCCOC(C1CCCCC1)C(CCN1CCN(c2cccc3c2OCCO3)CC1)c1ccccc1` (stereo not drawn) [Example 25, 1-(4-Cyclohexyl-3-phenyl-4-propoxybutyl)-4-[5-(2,3-dihydro-1,4-benzodioxinyl)]piperazine], the Ki was determined as 1.18 nM.

Turning to `CCC(O)C(CCN1CCN(c2cccc3c2OCCO3)CC1)c1ccccc1` (stereo not drawn) [Example 26, 1-[5-(2,3-Dihydro-1,4-benzodioxinyl)]-4-(4-hydroxy-3-phenyl)hexylpiperazine], the Ki came out at 2.62 nM.

`CCCC(O)C(CCN1CCN(c2cccc3c2OCCO3)CC1)c1ccccc1` (stereo not drawn) [Example 27]: the Ki is 1.09 nM.

As to `C=CC(O)C(CCN1CCN(c2cccc3c2OCCO3)CC1)c1ccccc1` (stereo not drawn) [Example 28, 1-[5-(2,3-Dihydro-1,4-benzodioxinyl)]-4-(4-hydroxy-3-phenylhex-5-enyl]piperazine], the Ki amounted to 2.92 nM.

Regarding `CC(C)C(O)C(CCN1CCN(c2cccc3c2OCCO3)CC1)c1ccccc1` (stereo not drawn) [Example 29], the Ki came to 1.08 nM.

Take `CC(O)C(CCN1CCN(c2cccc3c2OCCO3)CC1)c1ccccc1` (stereo not drawn) [Example 30]: the Ki is 5.43 nM.

On to `CC=CC(O)C(CCN1CCN(c2cccc3c2OCCO3)CC1)c1ccccc1` (stereo not drawn) [Example 32, 1-[5-(2,3-Dihydro-1,4-benzodioxinyl)]-4-(4-hydroxy-3-phenylhept-5-enyl)piperazine], for which the Ki turned out to be 3.57 nM.

Consider `C#CC(O)C(CCN1CCN(c2cccc3c2OCCO3)CC1)c1ccccc1` (stereo not drawn) [Example 33, 1-[5-(2,3-Dihydro-1,4-benzodioxinyl)]-4-(4-hydroxy-3-phenylhex-5-ynyl)piperazine], for which the Ki came to 5.03 nM.

Take `C=CCC(O)C(CCN1CCN(c2cccc3c2OCCO3)CC1)c1ccccc1` (stereo not drawn) [Example 34, 1-[5-(2,3-Dihydro-1,4-benzodioxinyl)]-4-(4-hydroxy-3-phenylhept-6-enyl)piperazine]: the Ki was 1.67 nM.

As for `CC(C)=CC(O)C(CCN1CCN(c2cccc3c2OCCO3)CC1)c1ccccc1` (stereo not drawn) [Example 35, 1-[5-(2,3-Dihydro-1,4-benzodioxinyl)]-4-(4-hydroxy-6-methyl-3-phenylhept-5-enyl)piperazine], the Ki was found to be 1.47 nM.

As to `CC(C)CC(O)C(CCN1CCN(c2cccc3c2OCCO3)CC1)c1ccccc1` (stereo not drawn) [Example 36], the Ki was found to be 0.56 nM.

Take `OCC(CCN1CCN(c2cccc3c2OCCO3)CC1)c1ccccc1` (stereo not drawn) [Example 37, 1-[5-(2,3-dihydro-1,4-benzodioxinyl)]-4-(4-hydroxy-3-phenylbutyl]piperazine]: the Ki is 5.03 nM.

As for `CN(C)C(=O)c1ccccc1C(CCN1CCN(c2cccc3c2OCCO3)CC1)C(=O)C1CCCCC1` (stereo not drawn) [Example 39, 1-[4-Cyclohexyl-3-(2-dimethylaminocarbonylphenyl)-4-oxobutyl]-4-[5-(2,3-dihydro-1,4-benzodioxinyl)]piperazine], the Ki was determined as 2.92 nM.

As for `CN(C)C(=O)c1ccccc1C(CCN1CCN(c2cccc3c2OCCO3)CC1)C(O)C1CCCCC1` (stereo not drawn) [Example 40, 1-[4-Cyclohexyl-3-(2-dimethylaminocarbonylphenyl)-4-hydroxybutyl]-4-[5-(2,3-dihydro-1,4-benzodioxinyl)]piperazine], the Ki was determined as 1.84 nM.

Take `COc1cc(F)ccc1N1CCN(CCC(c2ccccc2C(=O)N(C)C)C(O)C2CCCCC2)CC1` (stereo not drawn) [Example 42, 1-[4-Cyclohexyl-3-(2-dimethylaminocarbonylphenyl)-4-hydroxybutyl]-4-(4-fluoro-2-methoxyphenyl)piperazine]: the Ki worked out at 4.87 nM.

In the case of `O=C(C1CCCCC1)C(CCN1CCN(c2cccc3[nH]ccc23)CC1)c1ccccc1OC(F)(F)F` (stereo not drawn) [Example 44, 1-[4-Cyclohexyl-3-(2-trifluoromethoxyphenyl)-4-oxobutyl]-4-(4-indolyl)piperazine], the Ki is 1.14 nM.

A further assay addresses T2, 5-HT1A receptors (Rattus norvegicus, UniProt P19327).
T2 construct: stereotyped forepaw treading induced in rats by subcutaneous injection of 8-OH-DPAT; from tissue; host or cells: whole animal (male Sprague-Dawley rats), endogenous post-synaptic receptors
T2 sequence (P19327 1-422): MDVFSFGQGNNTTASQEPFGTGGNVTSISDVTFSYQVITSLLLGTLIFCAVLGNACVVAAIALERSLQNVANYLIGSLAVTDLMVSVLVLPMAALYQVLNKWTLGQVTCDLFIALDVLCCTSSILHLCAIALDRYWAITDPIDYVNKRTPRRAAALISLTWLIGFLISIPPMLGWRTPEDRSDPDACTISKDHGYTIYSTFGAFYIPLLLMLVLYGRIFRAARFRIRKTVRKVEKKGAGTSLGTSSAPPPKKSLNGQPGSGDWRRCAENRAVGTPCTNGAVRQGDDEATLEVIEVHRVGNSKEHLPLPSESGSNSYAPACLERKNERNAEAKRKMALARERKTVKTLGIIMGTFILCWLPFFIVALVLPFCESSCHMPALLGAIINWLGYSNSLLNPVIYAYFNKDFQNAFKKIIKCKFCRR
The assay can be described thus: Inhibition of stereotypy (rhythmic forepaw treading) induced by 8-OH-DPAT in rats (post-synaptic antagonism). The assay is classed as in vivo. The note with it: 10 mg/kg p.o., given 1 h before 8-OH-DPAT (1 mg/kg s.c.). Here is the method:
The inhibitory effect of 5-HT1A-receptor antagonists on stereotyped forepaw treading induced in rats by subcutaneous injection of 8-OH-DPAT was evaluated by the method of Tricklebank (Tricklebank et al., Eur. J. Pharmacol., 117: 15, 1985) with minor modifications as described below.
Male Sprague-Dawley rats[Crl: CD® (SD) IGS BR] weighing 150-175 g from Charles River Italia were used. The animals were housed with free access to food and water and maintained on a forced 12-hour-light/12-hour-dark cycle at 22-24° C. of temperature. On the day of the experiment, the rats were placed singly in clear plastic containers, 10-15 minutes before administration of the vehicle or compounds to be tested. For evaluation of antagonistic activity after oral administration, the compounds were administered 1 and 4 hours before induction of stereotypy by 8-OH-DPAT (1 mg/kg subcutaneously). Observation sessions last 30 seconds and were begun 3 minutes after 8-OH-DPAT treatment and repeated every 3 minutes over a period of 15 minutes.
The appearance of the symptom induced by postsynaptic stimulation of 5-HT1A receptors was noted, and the intensity was scored using an intensity scale in which: 0=absent, 1=equivocal, 2=present and 3=intense. Behavioural scores for treated rats were accumulated throughout the observation time (5 observation periods) and expressed as mean values of 4 rats/dose. Change in mean values of treated animals in comparison with control (vehicle) group, expressed as per-cent inhibition, were used to quantify the antagonistic activity.
Turning to `CCNC(=O)O[C@@H](C1CCCCC1)[C@H](CCN1CCN(c2ccccc2OC)CC1)c1ccccc1F` (racemic) [Example 47, (RS,SR) 1-[4-Cyclohexyl-4-ethylaminocarbonyloxy-3-(2-fluorophenyl)butyl]-4-(2-methoxyphenyl)piperazine], the “% Inhibition of forepaw treading, 1 h” value amounted to 56%.

The assay is the same for the next values; noted with them: 10 mg/kg p.o., given 4 h before 8-OH-DPAT (1 mg/kg s.c.).
As for `CCNC(=O)O[C@@H](C1CCCCC1)[C@H](CCN1CCN(c2ccccc2OC)CC1)c1ccccc1F` (racemic) [Example 47, (RS,SR) 1-[4-Cyclohexyl-4-ethylaminocarbonyloxy-3-(2-fluorophenyl)butyl]-4-(2-methoxyphenyl)piperazine], the “% Inhibition of forepaw treading, 4 h” value is 58%.
